# Paper PMC9918900, “New Succinimide–Thiazolidinedione Hybrids as Multitarget Antidiabetic Agents: Design, Synthesis, Bioevaluation, and Molecular Modelling Studies” (Molecules, 2023)
# What was measured:
# [1] = test system: streptozotocin-induced diabetic rats; experiment: in vivo antidiabetic activity, fasting plasma glucose level; design: species or system Wistar rats; conditions: STZ-induced diabetic rats, 0.5 mg/kg, 28th day
# Procedure: (§1) The antidiabetic activity of the synthesized compound 10d was evaluated using a streptozotocin-induced diabetic rats model.
# (§2) Male Wistar rats weighing 150 to 230 gm were used for the study which were housed in polyacrylic cages (no more than six animals per cage) with dimensions of 38 × 23 × 10 cm and maintained under standard laboratory conditions with a dark/light cycle of 14 h of dark and 10 h of light at a temperature of 25 °C. The animals were provided with a standard diet (dry pellet) and water ad libitum. Before the start of the experimental procedures, the rats were acclimatized to laboratory conditions for 10 days. All the experiments were approved and performed as per the guidelines of the Departmental Research Ethics Committee under letter No. DREC/050 [49].
# (§3) Non-insulin-dependent diabetes mellitus was induced in fasted rats weighing 150–230 gm using a single dose of streptozotocin (STZ) at a dose of 60 mg/kg intraperitoneally after 15 min of the administration of nicotinamide at a 120 mg/kg dose i.p. Nicotinamide was prepared in normal saline while in citrate buffer (pH 4.5), STZ was prepared. After the induction of diabetes, the increase in the plasma glucose level was measured at 72 h and then measured on the 7th day to confirm hyperglycemia. For the diagnosis of diabetes, the threshold value of the fasting plasma glucose level was considered to be more than 126 mg/dl. For the study, only the animals with permanent NIIDM were utilized.
# The animals were classified into 5 groups with 6 animals in each group (n = 6). […] The fasting glucose concentration was measured on the 0, 7th, 14th, and 28th day of the administration of the extract. During the experimental tenure, the weights of the rats were determined daily and the mean change was recorded.
# [2] = test system: streptozotocin-induced diabetic rats; experiment: effect on serum lipid profile of diabetic animals; type: in vivo, Wistar rats; conditions: compared to diabetic control group
# Procedure: as §1, §2, §3
# (§4) The animals were classified into 5 groups with 6 animals in each group (n = 6). Group I comprised of normal control rats which were daily administered drinking water only; group II served as diabetic control rats (disease group); group III served as the positive control and were administered 0.5 mg/kg of the standard drug glibenclamide; and group IV and V served as the test group rats and were administered the test compound 10d at 10 mg/kg and 20 mg/kg, respectively, for twenty-eight days. The fasting glucose concentration was measured on the 0, 7th, 14th, and 28th day of the administration of the extract. During the experimental tenure, the weights of the rats were determined daily and the mean change was recorded.
# (§5) The animals were euthanized (sacrificed) via cervical dislocation on the 28th day to observe the biochemical parameters. The parameters studied were triglyceride (TGL), cholesterol, low-density lipoprotein, and high-density lipoprotein (LDL and HDL). The Minias Globe Diagnostic kits were used for cholesterol and TGL. Semi-autoanalyzers were used for the analysis. The serum samples from the rats were also checked for alanine aminotransferase (ALT), aspartate aminotransferase (AST), lactate dehydrogenase (LDH), serum alkaline phosphatase (ALP), and creatinine and urea levels utilizing commercially available kits of Crest Biosystems. The statistical analysis was also performed as per the previous procedure.
# [3] = test system: streptozotocin-induced diabetic rats; experiment: effect on body weight; type: in vivo, Wistar rats; conditions: glibenclamide group, 0.5 mg/kg
# Procedure: as §1, §2, §3, §4
# [4] = test system: streptozotocin-induced diabetic rats; experiment: liver and renal serum biomarkers; type: in vivo, Wistar rats; conditions: 0.5 mg/kg, 28th day
# Procedure: as §3, §4, §5
smiles,measurement,setting,value
"COc1ccc(Cl)cc1C(=O)NCCc1ccc(S(=O)(=O)NC(=O)NC2CCCCC2)cc1 [Glibenclamide, glibenclamide, reference compound]",blood glucose level,[1],72.44 ± 3.58 mg/dL
same,HDL level,[2],greater than before
same,LDL in serum,[2],significant decline
same,total cholesterol level in serum,[2],significant decline
same,triglyceride in serum,[2],significant decline
same,"Change in Body Weight, After Induction",[3],160.52 ± 2.23 gm
same,"Change in Body Weight, Before Induction",[3],180.66 ± 1.67 ^ns gm
same,"Change in Body Weight, After Treatment",[3]; 28 days,176.90 ± 4.45 gm
same,ALP,[4],124.42 ± 2.35 U/L
same,ALT,[4],76.23 ± 2.13 U/L
same,AST,[4],80.36 ± 2.12 U/L
same,Creatinine,[4],0.44 ± 0.04 ^ns mg/dl
same,LDH,[4],826.21 ± 5.60 U/L
same,Urea,[4],42.45 ± 2.21 mg/dL
